Test results: patent US9302999B2, “Substituted triazoles as herbicides” (E. I. DU PONT DE NEMOURS AND COMPANY, priority 2012, dated 2016)

Experiments:
Type in all cases: in vivo
[1] = system: speedwell (bird's-eye speedwell, Veronica persica); assay: Test D pre-/postemergence: speedwell; conditions: for Plant response rating, Speedwell: 16 g ai/ha
Excerpt: (§1) Seeds of plant species selected from bluegrass (annual bluegrass, Poa annua), blackgrass (Alopecurus myosuroides), canarygrass (Phalaris minor), chickweed (common chickweed, Stellaria media), galium (catchweed bedstraw, Galium aparine), bromegrass, downy (downy bromegrass, Bromus tectorum), field poppy (Papaver rhoeas), field violet (Viola arvensis), foxtail, green (green foxtail, Setaria viridis), deadnettle (henbit deadnettle, Lamium amplexicaule), ryegrass, Italian (Italian ryegrass, Lolium multiflorum), kochia (Kochia scoparia), lambsquarters (Chenopodium album), oilseed rape (Brassica napus), pigweed (Amaranthus retroflexus), Russian thistle (Salsola iberica), chamomile (scentless chamomile, Matricaria inodora), speedwell (bird's-eye speedwell, Veronica persica), barley, spring (spring barley, Hordeum vulgare), wheat, spring (spring wheat, Triticum aestivum), buckwheat, wild (wild buckwheat, Polygonum convolvulus), mustard, wild (wild mustard, Sinapis arvensis), oat, wild (wild oat, Avena fatua), radish, wild (wild radish, Raphanus raphanistrum), windgrass (Apera spica-venti), barley, winter (winter barley, Hordeum vulgare), and wheat, winter (winter wheat, Triticum aestivum) were planted into a silt loam soil and treated preemergence with test chemicals formulated in a non-phytotoxic solvent mixture which included a surfactant. At the same time, these same crop and weed species were planted in pots containing the planting medium comprising spaghnum peat moss, vermiculite, wetting agent and starter nutrients and treated with postemergence applications of the test chemicals formulated in the same manner. Plants ranged in height from 2 to 18 cm (1- to 4-leaf stage).
(§2) Treated plants and controls were maintained in a controlled growth environment for 14 to 21 days after which time all species were compared to controls and visually evaluated. Plant response ratings, summarized in Table D, are based on a scale of 0 to 100 where 0 is no effect and 100 is complete control. A dash (-) response means no test result.

[2] = system: canarygrass (Phalaris minor); assay: Test D pre-/postemergence: canarygrass
Summary of the method: (§3)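 Species were sown in silt loam and sprayed preemergence, or grown in peat/vermiculite medium and sprayed postemergence at the 1- to 4-leaf stage (2–18 cm), with compounds in a surfactant-containing solvent. Injury was visually rated against untreated controls after 14–21 days, on a 0 (no effect) to 100 (complete control) scale.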

[3] = system: sedge, umbrella (small-flower umbrella sedge, Cyperus difformis); assay: Test C flooded paddy test: sedge, umbrella; conditions: scale 0 to 100 (0 no effect, 100 complete control)
Summary of the method: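 Visual ratings from 0 (no effect) to 100 (complete control), made against untreated controls 13 to 15 days after treatment, express plant response. Compounds went directly into paddy water over 2-leaf stage plants in pots flooded to 3 cm.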

[4] = system: chamomile (scentless chamomile, Matricaria inodora); assay: Test D pre-/postemergence: chamomile
Excerpt: as §1, §2

[5] = system: chickweed (common chickweed, Stellaria media); assay: Test D pre-/postemergence: chickweed
Summary of the method: as §3

[6] = system: ryegrass, Italian (Italian ryegrass, Lolium multiflorum); assay: Test D pre-/postemergence: ryegrass, Italian
Summary of the method: as §3

[7] = system: johnsongrass (Sorghum halepense); assay: Test F pre-/postemergence: johnsongrass; conditions: Preemergence
Excerpt: Seeds of plant species selected from corn (Zea mays), soybean (Glycine max), velvetleaf (Abutilon theophrasti), lambsquarters (Chenopodium album), poinsettia, wild (wild poinsettia, Euphorbia heterophylla), pigweed, palmer (palmer pigweed, Amaranthus palmeri), waterhemp (common waterhemp, Amaranthus rudis), surinam grass (Brachiaria decumbens), crabgrass, Brazil (Brazilian crabgrass, Digitaria horizontalis), panicum, fall (fall panicum Panicum dichotomiflorum), crabgrass, large (large crabgrass, Digitaria sanguinalis), foxtail, giant (giant foxtail, Setaria faberii), foxtail, green (green foxtail Setaria viridis), goosegrass (Eleusine indica), ragweed (common ragweed, Ambrosia elatior), barnyardgrass (Echinochloa crus-galli), sandbur (southern sandbur, Cenchrus echinatus), arrowleaf sida (Sida rhombifolia), ryegrass, Italian (Italian ryegrass, Lolium multiflorum), dayflower, VA (Virginia (VA) dayflower, Commelina virginica), field bindweed (Convolvulus arvensis), cocklebur (common cocklebur, Xanthium strumarium), morningglory (Ipomoea coccinea), nightshade (eastern black nightshade, Solanum ptycanthum), kochia (Kochia scoparia), nutsedge, yellow (yellow nutsedge, Cyperus esculentus), johnsongrass (Sorghum halepense), smartweed (ladysthumb smartweed, Polygonum persicaria), and beggarticks (hairy beggarticks, Bidens pilosa), were planted into a silt loam soil and treated preemergence with test chemicals formulated in a non-phytotoxic solvent mixture which included a surfactant. At the same time, plants selected from these crop and weed species and also pigweed (Amaranthus retroflexus), waterhemp_RES1 (ALS/Triazine resistant common waterhemp, Amaranthus rudis) and waterhemp_RES2 (ALS/HPPD resistant common waterhemp, Amaranthus rudis) were planted in pots containing a planting medium comprising spaghnum peat moss, vermiculite, wetting agent and starter nutrients treated with postemergence applications of some of the test chemicals formulated in the same manner. Plants ranged in height from 2 to 18 cm for postemergence treatments (1- to 4-leaf stage).
as §2, with “greenhouse” for “controlled growth environment”, “days,” for “days”, “E,” for “D,”

[8] = Postemergence, 31 g ai/ha, scale 0 to 100 (0 no effect, 100 complete control)
[9] = Postemergence, 62 g ai/ha, scale 0 to 100 (0 no effect, 100 complete control)
[10] = Postemergence, 125 g ai/ha, scale 0 to 100, 0 no effect, 100 complete control
[11] = Postemergence, 250 g ai/ha, scale 0 to 100 (0 no effect, 100 complete control)
[12] = Postemergence, 16 g ai/ha, scale 0 to 100
[13] = Preemergence, 31 g ai/ha, scale 0 to 100, 0 no effect, 100 complete control
[14] = Preemergence, 62 g ai/ha, scale 0 to 100
[15] = Preemergence, 125 g ai/ha, scale 0 to 100
[16] = Preemergence, 250 g ai/ha, scale 0 to 100
[17] = Flood (flooded paddy test), 125 g ai/ha, visual rating after 13 to 15 days
[18] = Flood (flooded paddy test), 250 g ai/ha, visual rating after 13 to 15 days
[19] = Preemergence, 16 g ai/ha, scale 0 to 100, 0 no effect, 100 complete control

Cc1nn(-c2ccc(C(F)(F)F)cn2)nc1Cc1cccc(C(F)(F)F)c1 [Compound 106]
Plant response rating: Speedwell [1, 8]: 0 | Plant response rating: Speedwell [1, 9]: 0 | Plant response rating: Speedwell [1, 10]: 90 | Plant response rating: Speedwell [1, 11]: 90 | Plant response rating, Speedwell ([1]; Postemergence, scale 0 to 100): 0 | Plant response rating: Canarygrass [2, 8]: 5 | Plant response rating: Canarygrass [2, 9]: 10 | Plant response rating: Canarygrass [2, 10]: 20 | Plant response rating: Canarygrass [2, 11]: 30 | Plant response rating, Canarygrass [2, 12]: 5 | Plant response rating, Canarygrass [2, 13]: 0 | Plant response rating, Canarygrass [2, 14]: 0 | Plant response rating, Canarygrass [2, 15]: 0 | Plant response rating, Canarygrass [2, 16]: 0 | Plant response rating, Sedge, Umbrella [3, 17]: 75 | Plant response rating, Sedge, Umbrella [3, 18]: 80 | Plant response rating, Sedge, Umbrella ([3]; Flood, 31 g ai/ha): 50 | Plant response rating, Sedge, Umbrella ([3]; Flood, 62 g ai/ha): 50 | Plant response rating: Chamomile [4, 8]: 0 | Plant response rating: Chamomile [4, 9]: 0 | Plant response rating: Chamomile [4, 10]: 0 | Plant response rating: Chamomile [4, 11]: 25 | Plant response rating, Chamomile [4, 12]: 0 | Plant response rating: Chickweed [5, 8]: 90 | Plant response rating: Chickweed [5, 9]: 90 | Plant response rating: Chickweed [5, 10]: 90 | Plant response rating: Chickweed [5, 11]: 90 | Plant response rating, Chickweed [5, 12]: 20 | Plant response rating, Chickweed [5, 13]: 100 | Plant response rating, Chickweed [5, 14]: 100 | Plant response rating, Chickweed [5, 15]: 100 | Plant response rating, Chickweed [5, 16]: 100 | Plant response rating: Ryegrass, Italian [6, 8]: 5 | Plant response rating: Ryegrass, Italian [6, 9]: 5 | Plant response rating: Ryegrass, Italian [6, 10]: 10 | Plant response rating: Ryegrass, Italian [6, 11]: 20 | Plant response rating, Ryegrass, Italian [6, 12]: 5 | Plant response rating, Ryegrass, Italian [6, 13]: 0 | Plant response rating, Ryegrass, Italian [6, 14]: 0 | Plant response rating, Ryegrass, Italian [6, 15]: 0 | Plant response rating, Ryegrass, Italian [6, 16]: 0

Cc1nn(-c2ccc(C(F)(F)F)cc2)nc1Oc1ccnc(C(F)(F)F)c1 [Compound 120]
Plant response rating: Speedwell [1, 8]: 100 | Plant response rating: Speedwell [1, 9]: 100 | Plant response rating: Speedwell [1, 10]: 100 | Plant response rating: Speedwell [1, 11]: 100 | Plant response rating, Speedwell ([1]; Postemergence, scale 0 to 100): 60 | Plant response rating, Speedwell ([1]; Preemergence, scale 0 to 100, 0 no effect, 100 complete control): 0 | Plant response rating: Canarygrass [2, 8]: 5 | Plant response rating: Canarygrass [2, 9]: 20 | Plant response rating: Canarygrass [2, 10]: 90 | Plant response rating: Canarygrass [2, 11]: 95 | Plant response rating, Canarygrass [2, 12]: 0 | Plant response rating, Canarygrass [2, 19]: 0 | Plant response rating, Canarygrass [2, 13]: 90 | Plant response rating, Canarygrass [2, 14]: 100 | Plant response rating, Canarygrass [2, 15]: 100 | Plant response rating, Canarygrass [2, 16]: 100 | Plant response rating, Sedge, Umbrella [3, 17]: 90 | Plant response rating, Sedge, Umbrella [3, 18]: 90 | Plant response rating, Sedge, Umbrella ([3]; Flood, 62 g ai/ha): 85 | Plant response rating: Chamomile [4, 8]: 25 | Plant response rating: Chamomile [4, 9]: 40 | Plant response rating: Chamomile [4, 10]: 80 | Plant response rating: Chamomile [4, 11]: 90 | Plant response rating, Chamomile [4, 12]: 10 | Plant response rating, Chamomile [4, 19]: 0 | Plant response rating, Chamomile [4, 13]: 10 | Plant response rating, Chamomile [4, 14]: 20 | Plant response rating, Chamomile [4, 15]: 100 | Plant response rating, Chamomile [4, 16]: 100 | Plant response rating: Chickweed [5, 8]: 85 | Plant response rating: Chickweed [5, 9]: 98 | Plant response rating: Chickweed [5, 10]: 100 | Plant response rating: Chickweed [5, 11]: 100 | Plant response rating, Chickweed [5, 12]: 75 | Plant response rating, Chickweed [5, 19]: 20 | Plant response rating, Chickweed [5, 13]: 90 | Plant response rating, Chickweed [5, 14]: 90 | Plant response rating, Chickweed [5, 15]: 100 | Plant response rating, Chickweed [5, 16]: 100 | Plant response rating: Ryegrass, Italian [6, 8]: 5 | Plant response rating: Ryegrass, Italian [6, 9]: 10 | Plant response rating: Ryegrass, Italian [6, 10]: 15 | Plant response rating: Ryegrass, Italian [6, 11]: 30 | Plant response rating, Ryegrass, Italian [6, 12]: 5 | Plant response rating, Ryegrass, Italian [6, 19]: 0 | Plant response rating, Ryegrass, Italian [6, 13]: 5 | Plant response rating, Ryegrass, Italian [6, 14]: 40 | Plant response rating, Ryegrass, Italian [6, 15]: 80 | Plant response rating, Ryegrass, Italian [6, 16]: 100

COc1nn(-c2cccc(F)c2)nc1Cc1ccnc(C(F)(F)F)c1 [Compound 139]
Plant response rating, Johnsongrass ([7]; 16 g ai/ha, scale 0 to 100, 0 no effect, 100 complete control): 0 | Plant response rating, Johnsongrass ([7]; 31 g ai/ha, scale 0 to 100, 0 no effect, 100 complete control): 75 | Plant response rating, Johnsongrass ([7]; 62 g ai/ha, scale 0 to 100): 90 | Plant response rating, Johnsongrass ([7]; 125 g ai/ha, scale 0 to 100): 98 | Plant response rating, Johnsongrass ([7]; 250 g ai/ha, scale 0 to 100): 100
